Measurements published in patent US20150274719A1, “AMINO-SUBSTITUTED IMIDAZO[1,2-A]PYRIDINECARBOXAMIDES AND THEIR USE” (BAYER PHARMA AKTIENGESELLSCHAFT, priority 2012, published 2015).
Where a name gives a salt, the structure may show the parent alone.

Each compound was assayed against T1, recombinant guanylate cyclase reporter cell line (Rattus norvegicus, UniProt P19686+P20595) (assay: Action on recombinant guanylate cyclase reporter cell line). Settings: in some cases mean values from individual determinations.
T1 construct: expressed in transfected cells; host or cells: recombinant reporter cell line
T1 sequence (P19686 1-690): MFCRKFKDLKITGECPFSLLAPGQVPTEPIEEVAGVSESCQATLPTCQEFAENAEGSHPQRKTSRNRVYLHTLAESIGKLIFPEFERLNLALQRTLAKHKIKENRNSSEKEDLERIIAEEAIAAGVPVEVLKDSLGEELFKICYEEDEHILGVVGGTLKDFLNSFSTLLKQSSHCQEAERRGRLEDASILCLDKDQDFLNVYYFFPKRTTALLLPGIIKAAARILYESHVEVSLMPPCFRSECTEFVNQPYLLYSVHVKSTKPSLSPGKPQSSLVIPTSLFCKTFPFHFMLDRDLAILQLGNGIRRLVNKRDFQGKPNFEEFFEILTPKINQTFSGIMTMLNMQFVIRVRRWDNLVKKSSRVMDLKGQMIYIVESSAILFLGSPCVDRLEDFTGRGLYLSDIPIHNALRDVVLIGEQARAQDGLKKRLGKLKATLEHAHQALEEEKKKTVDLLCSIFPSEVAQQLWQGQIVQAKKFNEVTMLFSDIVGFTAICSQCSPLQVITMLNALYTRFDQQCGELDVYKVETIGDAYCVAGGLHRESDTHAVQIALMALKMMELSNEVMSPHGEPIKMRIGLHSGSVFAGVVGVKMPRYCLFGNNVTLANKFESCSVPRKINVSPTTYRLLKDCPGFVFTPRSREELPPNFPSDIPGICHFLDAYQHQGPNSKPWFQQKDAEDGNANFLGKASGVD
T1 sequence (P20595 1-619): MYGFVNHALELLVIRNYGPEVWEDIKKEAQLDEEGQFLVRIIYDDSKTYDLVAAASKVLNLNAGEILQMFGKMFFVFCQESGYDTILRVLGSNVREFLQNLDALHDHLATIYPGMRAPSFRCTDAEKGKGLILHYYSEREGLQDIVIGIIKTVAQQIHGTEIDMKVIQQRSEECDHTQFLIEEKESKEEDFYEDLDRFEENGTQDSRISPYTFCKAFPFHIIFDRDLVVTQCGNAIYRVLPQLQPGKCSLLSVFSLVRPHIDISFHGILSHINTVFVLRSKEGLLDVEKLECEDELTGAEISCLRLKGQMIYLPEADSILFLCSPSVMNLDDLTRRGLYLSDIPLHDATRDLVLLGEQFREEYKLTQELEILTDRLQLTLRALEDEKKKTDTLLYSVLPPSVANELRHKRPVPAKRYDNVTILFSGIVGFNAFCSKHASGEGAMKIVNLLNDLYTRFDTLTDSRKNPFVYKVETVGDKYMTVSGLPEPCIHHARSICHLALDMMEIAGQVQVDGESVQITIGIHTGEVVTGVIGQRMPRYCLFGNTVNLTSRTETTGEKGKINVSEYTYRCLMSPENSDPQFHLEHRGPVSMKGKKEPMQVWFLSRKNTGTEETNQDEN
Format: cell-based
Outline: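 Rat recombinant guanylate cyclase reporter cell line measures cellular activity. Value reported as MEC (minimal effective concentration), sometimes averaged over individual determinations.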
In the case of `Cc1cc(OCc2c(F)cccc2F)c2nc(C)c(C(=O)NC[C@@H]3CCCN3)n2c1` [Example 115, 8-[(2,6-difluorobenzyl)oxy]-2,6-dimethyl-N-[(2S)-pyrrolidin-2-ylmethyl]imidazo[1,2-a]-pyridine-3-carboxamide], the “MEC (minimal effective concentration)” value is reported as 1.00 µM.
For `Cc1nc2c(OCc3c(F)cccc3F)cccn2c1C(=O)NC(C)(C)C(C)(C)N` [Example 141, N-(3-Amino-2,3-dimethylbutan-2-yl)-8-[(2,6-difluorobenzyl)oxy]-2-methylimidazo[1,2-a]pyridine-3-carboxamide], the “MEC (minimal effective concentration)” value was 3.00 µM.
With `Cc1nc2c(OCc3c(F)cccc3F)cc(Cl)cn2c1C(=O)NCCN1CCC(F)(F)CC1` [Example 151, 6-chloro-8-[(2,6-difluorobenzyl)oxy]-N-[2-(4,4-difluoropiperidin-1-yl)ethyl]-2-methylimidazo[1,2-a]pyridine-3-carboxamide] the “MEC (minimal effective concentration)” value was 0.10 µM.
`Cc1nc2c(OCC3CCCCC3)cccn2c1C(=O)NC(CN)c1ccc(F)c(F)c1` (single isomer, unassigned) [Example 179, ent-N-[2-Amino-1-(3,4-difluorophenyl)ethyl]-8-(cyclohexylmethoxy)-2-methylimidazo[1,2-a]-pyridine-3-carboxamide] was tested, and the “MEC (minimal effective concentration)” value was 1.00 µM.
With `Cc1cc(OCc2c(F)cccc2F)c2nc(C)c(C(=O)NC(CN)c3cc(F)c(F)c(F)c3)n2c1` (racemic) [Example 390, rac-N-[2-amino-1-(3,4,5-trifluorophenyl)ethyl]-8-[(2,6-difluorobenzyl)oxy]-2,6-dimethylimidazo[1,2-a]pyridine-3-carboxamide] the “MEC (minimal effective concentration)” value was 0.30 µM.
With `Cc1nc2c(OCc3c(F)cccc3F)cc(Cl)cn2c1C(=O)NCC(N)C(C)C` (single isomer, unassigned) [Example 212, ent-N-(2-Amino-3-methylbutyl)-6-chloro-8-[(2,6-difluorobenzyl)oxy]-2-methylimidazo[1,2-a]-pyridine-3-carboxamide] the “MEC (minimal effective concentration)” value was 1.00 µM.
For `Cc1nc2c(OCc3c(F)cccc3F)cccn2c1C(=O)NC(C)CN` (racemic) [Example 17, rac-N-(1-aminopropan-2-yl)-8-[(2,6-difluorobenzyl)oxy]-2-methylimidazo[1,2-a]pyridine-3-carboxamide dihydrochloride], the “MEC (minimal effective concentration)” value was 1.00 µM.
In the case of `Cc1nc2c(OCc3c(F)cccc3F)cccn2c1C(=O)NC(C)CN` (single isomer, unassigned) [Example 19, ent-N-(1-Aminopropan-2-yl)-8-[(2,6-difluorobenzyl)oxy]-2-methylimidazo[1,2-a]pyridine-3-carboxamide], the “MEC (minimal effective concentration)” value is reported as 1.66 µM.
With `Cc1nc2c(OCc3c(F)cccc3F)cccn2c1C(=O)NCCN(CC(F)F)C1CC1` [Example 146, N-{2-[cyclopropyl(2,2-difluoroethyl)amino]ethyl}-8-[(2,6-difluorobenzyl)oxy]-2-methylimidazo[1,2-a]-pyridine-3-carboxamide] the “MEC (minimal effective concentration)” value was 1.00 µM.
`Cc1nc2c(OCc3c(F)cccc3F)cccn2c1C(=O)NCCN1CCN(C)CC1` [Example 133, 8-[(2,6-difluorobenzyl)oxy]-2-methyl-N-[2-(4-methylpiperazin-1-yl)ethyl]imidazo[1,2-a]-pyridine-3-carboxamide] was tested, and the “MEC (minimal effective concentration)” value was 3.00 µM.
For `Cc1cc(OCc2c(F)cccc2F)c2nc(C)c(C(=O)NCCN3CCOCC3)n2c1` [Example 136, 8-[(2,6-difluorobenzyl)oxy]-2,6-dimethyl-N-[2-(morpholin-4-yl)ethyl]imidazo[1,2-a]pyridine-3-carboxamide], the “MEC (minimal effective concentration)” value was 0.10 µM.
For `Cc1cc(OCc2c(F)cccc2F)c2nc(C)c(C(=O)NC3CCC4NCCC43)n2c1` (racemic) [Example 342, rac-8-[(2,6-Difluorobenzyl)oxy]-2,6-dimethyl-N-(octahydrocyclopenta[b]pyrrol-4-yl)imidazo[1,2-a]pyridine-3-carboxamide], the “MEC (minimal effective concentration)” value was 1.00 µM.
In the case of `Cc1cc(OCc2c(F)cccc2F)c2nc(C)c(C(=O)NC(CN)c3csc4ccccc34)n2c1` (racemic) [Example 389, rac-N-[2-amino-1-(1-benzothiophen-3-yl)ethyl]-8-[(2,6-difluorobenzyl)oxy]-2,6-dimethylimidazo[1,2-a]pyridine-3-carboxamide], the “MEC (minimal effective concentration)” value is reported as 1.00 µM.
For `CCC(C)(N)CNC(=O)c1c(C)nc2c(OCc3c(F)cccc3F)cc(Cl)cn12` (single isomer, unassigned) [Example 195, ent-N-(2-Amino-2-methylbutyl)-6-chloro-8-[(2,6-difluorobenzyl)oxy]-2-methylimidazo[1,2-a]-pyridine-3-carboxamide], the “MEC (minimal effective concentration)” value was 0.30 µM.
`Cc1nc2c(OCc3c(F)cccc3F)cccn2c1C(=O)NCC(N)COC(C)C` (racemic) [Example 205, rac-N-(2-Amino-3-isopropoxypropyl)-8-[(2,6-difluorobenzyl)oxy]-2-methylimidazo[1,2-a]-pyridine-3-carboxamide] was tested, and the “MEC (minimal effective concentration)” value was 0.30 µM.
With `Cc1nc2c(OCc3c(F)cccc3F)cccn2c1C(=O)NC1CC(C)(C)N(C)C(C)(C)C1` [Example 83, 8-[(2,6-difluorobenzyl)oxy]-2-methyl-N-(1,2,2,6,6-pentamethylpiperidin-4-yl)imidazo[1,2-a]pyridine-3-carboxamide] the “MEC (minimal effective concentration)” value was 0.10 µM.
For `Cc1cc(OCc2c(F)cccc2F)c2nc(C)c(C(=O)NCC(C)(N)Cc3nc4ccccc4s3)n2c1` (racemic) [Example 310, rac-N-[2-amino-3-(1,3-benzothiazol-2-yl)-2-methylpropyl]-8-[(2,6-difluorobenzyl)oxy]-2,6-dimethylimidazo[1,2-a]pyridine-3-carboxamide], the “MEC (minimal effective concentration)” value was 0.30 µM.
In the case of `Cc1nc2c(OCc3c(F)cccc3F)cc(Cl)cn2c1C(=O)NC1CNCc2ccccc21` (single isomer, unassigned; ent-6) [Example 108, ent-6-chloro-8-[(2,6-difluorobenzyl)oxy]-2-methyl-N-(1,2,3,4-tetrahydroisoquinolin-4-yl)imidazo[1,2-a]pyridine-3-carboxamide], the “MEC (minimal effective concentration)” value is reported as 1.00 µM.
For `Cc1nc2c(OCc3c(F)cccc3F)cccn2c1C(=O)NCCN1CCC(F)(F)C1` [Example 143, 8-[(2,6-difluorobenzyl)oxy]-N-[2-(3,3-difluoropyrrolidin-1-yl)ethyl]-2-methylimidazo[1,2-a]pyridine-3-carboxamide], the “MEC (minimal effective concentration)” value was 0.30 µM.
For `Cc1nc2c(OCC3CCCCC3)cccn2c1C(=O)NC(CN)c1ccccc1` (racemic) [Example 44, rac-N-(2-Amino-1-phenylethyl)-8-(cyclohexylmethoxy)-2-methylimidazo[1,2-a]pyridine-3-carboxamide], the “MEC (minimal effective concentration)” value was 0.30 µM.
`Cc1nc2c(OCc3c(F)cccc3F)cccn2c1C(=O)NCC(C)(N)CC(C)C` (single isomer, unassigned) [Example 203, ent-N-(2-Amino-2,4-dimethylpentyl)-8-[(2,6-difluorobenzyl)oxy]-2-methylimidazo[1,2-a]pyridine-3-carboxamide] was tested, and the “MEC (minimal effective concentration)” value was 0.10 µM.
In the case of `Cc1nc2c(OCc3c(F)cccc3F)cccn2c1C(=O)NC(CN)COC(C)C` (single isomer, unassigned) [Example 93, ent-N-(1-Amino-3-isopropoxypropan-2-yl)-8-[(2,6-difluorobenzyl)oxy]-2-methylimidazo[1,2-a]-pyridine-3-carboxamide], the “MEC (minimal effective concentration)” value is reported as 0.30 µM.
With `Cc1nc2c(OCc3c(F)cccc3F)cccn2c1C(=O)NC(CN)CC(C(F)(F)F)C(F)(F)F` (racemic) [Example 5, rac-N-[1-amino-5,5,5-trifluoro-4-(trifluoromethyl)pentan-2-yl]-8-[(2,6-difluorobenzyl)oxy]-2-methylimidazo[1,2-a]-pyridine-3-carboxamide trifluoroacetate] the “MEC (minimal effective concentration)” value was 1.00 µM.
For `CCCC[C@H](CN(C)C)NC(=O)c1c(C)nc2c(OCc3c(F)cccc3F)cccn12` [Example 68, ent-8-[(2,6-difluorobenzyl)oxy]-N-[(2R)-1-(dimethylamino)hexan-2-yl]-2-methylimidazo[1,2-a]-pyridine-3-carboxamide], the “MEC (minimal effective concentration)” value was 0.30 µM.
